Experiments:
[1] = Enzymatic hydrolytic cleavage and rate of oxidation of compound 5c in human plasma (HPLC); type: in vitro ADME; settings: 80% plasma, 37°C, pseudo first order, read-out: apparent half-lives for the disappearance
Experimental: (§1) A high pressure liquid chromatography (HPLC) method was developed for the studies of the degradation of the dihydropyridine dopamine derivative. The chromatographic analysis was performed on a component system consisting of a Waters Associate Model 6000A solvent delivery system, Model U6K injector and Model 440 dual channel absorbance detector operated at 254 and 280 nm. A 30 cm x 3.9 mm (internal diameter) reverse phase µBondapak C18 column (Waters Associates), operated at ambient temperature, was used for all separations. The mobile phase used for the separation of the dihydropyridine derivative, its degradation products and oxidation products consisted of 0.005 M solution of 1-heptanesul- fonic acid sodium salt (PIC B-7 Eastman Kodak) in CH3CN; 0.01 M aqueous dibasic ammonium phosphate (2.5:1). A peak was always shown at a retention time of 2.2 min which is believed to be a monodeacylated dihydropyridine derivative, since it eventually did result in 6a.
The freshly collected plasma used was obtained at the Civitan Regional Blood Center, Inc. (Gainesville, Florida) and contained about 80% plasma diluted with anticoagulant citrate phosphate dextrose solution U.S.P. The plasma was stored in a refrigerator and used the next day. […] When all samples had been collected, they were centrifuged and the supernatants were filtered through Whatman 1 filter papers and analyzed to HPLC.

[2] = Enzymatic hydrolytic cleavage and rate of oxidation of compound 5c in human blood (HPLC); type: in vitro ADME; settings: whole citrated blood, 37°C, pseudo first order, read-out: apparent half-lives for the disappearance
Experimental: as §1
The freshly collected heparinized blood was obtained at the Civitan Regional Blood Center, Inc. (Gainesville, Florida). The blood was stored in a refrigerator and used the next day. […] When all samples had been collected, they were centrifuged and the supernatants were filtered using Whatman 4 filter paper and analyzed by HPLC.

[3] = Enzymatic hydrolytic cleavage and rate of oxidation of compound 5c in rat brain homogenate (HPLC); type: in vitro ADME, Sprague-Dawley rats; settings: rat, pH 7.4; 20% brain homogenate, 37°C, pseudo first order; read-out: apparent half-lives for the disappearance
Experimental: as §1
The brain homogenate was prepared by the following method. Five Sprague-Dawley rats were killed by decapitation and the brains were removed, weighed (total weight 9.85 g) and homogenized in 49.3 ml of aqueous 0.11 M phosphate buffer, pH 7.4. The homogenate was centrifuged and the supernatant was used for the test. […] Each supernatant was filtered through two Whatman 1 filter papers and analyzed by HPLC.

[4] = Concentration of compound 6a in brain and blood after parenteral administration of 5c; type: in vivo, Male Sprague-Dawley rats; settings: after administration of 5c, rat
Experimental: The dihydropyridine derivative (5c) was then selected for the in vivo study. A solution in DMSO (dimethylsulfoxide) was injected through the jugular vein to a group of male Sprague-Dawley rats which were then sacrificed at various time intervals; their blood and brains were analyzed for the quaternary percursor of dopamine (6a). The in vivo dopaminergic activities of the selected compounds 5c vs. 6a were then determined.
Male Sprague-Dawley rats of average weight of 150 ± 10g were used. The rats were anesthetized with IM injection of Inovar and the jugular was exposed. Compound 5c was injected intrajugularly in the form of 10% solution in DMSO at a dose of 64.2 mg/kg (equivalent to 50 mg/kg compound 6a). The injection was given at a rate of 24 µl/min using a calibrated infusion pump. […] The weighed brain was homogenized with 0.5 ml of distilled water, 3 ml of acetonitrile was added and the mixture was rehomogenized thoroughly, centrifuged, filtered and then analyzed for compound 6a using the HPLC method. The tubes containing the blood were shaken vigorously, centrifuged, decanted and also analyzed for compound 6a using the HPLC method. Quantitation was done by using a recovery standard curve obtained by introducing a known amount of 6a in either brain homogenate or blood and then treated in the same manner. […]

[5] = test system: brain-dopamine concentrations; experiment: Changes in brain-dopamine concentrations after intrajugular administration of 5c; type: in vivo; settings: 5c administered intrajugularly, some of the rats, others practically none
Experimental: To determine whether dopamine itself was finally released in the brain upon completion of the aforesaid complex delivery process, 5c was administered intrajugularly and changes in brain-dopamine concentrations following that administration were studied. […] It is known that dopamine and its agonists decrease prolactin secretion following their binding to stereospecific receptors located on lactophors in the anterior pituitary (AP) gland [G.P. Mueller, J.W. Simpkins, J. Meites and K.E. Moore, Neuroendocrinology, 20, 121 (1976); W. Wuttke, E. Cassell and J Meites, Endocrinology, 88, 737 (1971); J.A. Clemens, E.B. Smalstig and C.J. Shaar, Acta Endocrinol., 79, 230 (1975)]. This effect is dose- dependent and it can also be observed in vitro, incubating anterior pituitaries with dopamine or its agonists [R.M. MacLeod Ed. L. Martini and W.F. Ganong, Raven Press].

[6] = Chemical oxidation by hydrogen peroxide and silver nitrate; type: physicochemical; settings: H2O2 or alcoholic AgNO3 solution
Experimental: The stability of the 1,4-dihydropyridine derivatives (5) was determined in the presence of the oxidizing agents, alcoholic AgN03 and hydrogen peroxide. The in vitro rates of oxidation of the 1,4-dihydropyridine derivative (5c) in 80% plasma, 20% brain homogenate, 20% liver homogenate and in whole blood were determined.
To 10 ml of 30% H202 was added 0.2 g of the dihydropyridine derivative (products of Examples 5 or 8). The mixture was stirred and samples were taken to check the UV spectrum.
To 5 ml of saturated methanolic AgN03 solution was added 1 ml of 5% methanolic solution of the dihydropyridine derivative. The mixture was shaken and left for 5 min for complete precipitation of silver, centrifuged and an aliquot was taken to check the UV spectrum. Complete oxidation to the quaternary salts was observed.

half-life at 3050 µM [1]: 51 min
half-life at 900 µM [2]: 18 min
half-life at 1800 µM [3]: 17 min
oxidation to the corresponding quaternary salt 6c [6]: quantitatively oxidized
Compound: CN1C=CCC(C(=O)NCCc2ccc(OC(=O)C(C)(C)C)c(OC(=O)C(C)(C)C)c2)=C1 [5c, 1-Methyl-3-(N-[β-(3,4-dipivalyloxyphenyl)-ethyl]}carbamoyl-1,4-dihydropyridine]
formation of O-methyl metabolites (9, 10) in the brain [4]: No formation of O-methyl metabolites (9, 10) could be detected
increase in the dopamine concentrations [5]: up to threefold increase

Reference: EP0110955B1, “BRAIN-SPECIFIC DRUG DELIVERY” (UNIVERSITY OF FLORIDA, priority 1982, dated 1983)
